From US20240142438A1, “MULTI-ORGAN MODEL” (CELLARTGEN INC., priority 2021, published 2024)
“Also recorded” adds a separate entry of the source.

Columns and labels:
cardiac organoid = assay: Candidate drugs on cardiac organoid in multi-organ NASH organoid model (chip); type: cell-based, mouse; conditions: oleic acid 500 μM + drug 50 μM, 3 days in liver chamber
Description: (§1) A multi-organ NASH model was constructed by applying not only conventional Matrigel, a commercially available culture scaffold, but also a decellularized tissue-derived hydrogel scaffold to culture of each organoid in a multi-organ device. Liver and pancreas organoids were obtained by extracting adult stem cells from a mouse tissue, encapsulated in a decellularized liver tissue-derived matrix (6 mg/ml) and a decellularized pancreas tissue-derived matrix (4 mg/ml), respectively, at a cell density of 70,000 cells/30 μL gel, and cultured. An intestinal organoid was obtained by extracting intestinal crypts from a mouse intestinal tissue and encapsulated in a decellularized intestinal tissue-derived matrix (2 mg/ml) at a cell density of 800 crypts/30 μL gel, and cultured. […] The cardiac organoid was cultured on a hydrogel (20 organoids/70 μL gel bed) prepared by crosslinking of a decellularized cardiac tissue-derived matrix (5 mg/ml) in the form of a 70 μL gel bed at the bottom of the device. The decellularized matrix for culturing each organoid was applied at the optimal concentration for differentiation of each organoid as determined through previous research.

intestinal organoid = assay: Candidate drugs on intestinal organoid in multi-organ NASH organoid model (chip); type: cell-based, mouse; conditions: oleic acid 500 μM + drug 50 μM, 3 days in liver chamber
Description: as §1

pancreas organoid = assay: Candidate drugs on pancreas organoid in multi-organ NASH organoid model (chip); type: cell-based, mouse; conditions: oleic acid 500 μM + drug 50 μM, 3 days in liver chamber
Description: as §1

liver organoid = assay: Candidate drugs on liver organoid in multi-organ NASH organoid model (chip); type: cell-based, mouse; conditions: oleic acid 500 μM + drug 50 μM, 3 days; for low-density cholesterol (LDL) levels in the liver organoids: cholesterol analysis of disrupted organoids, vs No Treatment (NT)
Description: as §1
Obeticholic acid (OCA), a semi-synthetic bile acid analog, is an agonist for FXR (farnesoid X receptor) to regulate bile acid metabolism, inflammation, fibrosis, and sugar/lipid metabolism. […] Elafibranor (Ela), a dual agonist for PPARα/δ, is a drug that inhibits fatty acid biosynthesis and glucose biosynthesis in the liver and has been used as a drug for cardiometabolic diseases. Liraglutide (Lira), an agonist for glucagon-like peptide-1 (GLP-1), is a drug that has been used to treat diabetes.

[1] = test system: human iPSC-derived pancreas organoids; conditions: immunofluorescence staining; oleic acid 500 μM + drug 50 μM, 3 days in liver chamber
Description: Human iPSC-derived liver organoids were differentiated into hepatic endoderm cells through endoderm, and then a total of 500,000 cells including the hepatic endoderm cells, vascular endothelial cells (HUVEC) and mesenchymal stem cells (hMSC) at a ratio of 10:7:2 were mixed in 10 μL of culture medium. The mixture was coated onto 10 μL of a decellularized liver tissue-derived matrix (LEM) to induce the formation of three-dimensional organoids. […] Human iPSC-derived pancreas organoids were differentiated into beta cells through endoderm, gut endoderm, pancreatic endoderm, and pancreatic progenitor cells, and then a total of 500,000 cells including the beta cells, vascular endothelial cells (HUVEC) and mesenchymal stem cells (hMSC) at a ratio of 10:7:2 were mixed in 10 μL of culture medium. The mixture was coated onto 10 μL of a decellularized pancreas tissue-derived matrix (PEM) to induce the formation of three-dimensional organoids. […] Each organoids cultured in a decellularized tissue-derived matrix was seeded into a multi-organ microfluidic device and then cultured in a normal culture medium suitable for each organ for 2 days. […]

[2] = test system: human iPSC-derived intestinal organoids; conditions: immunofluorescence staining, oleic acid 500 μM + drug 50 μM, 3 days in liver chamber
Description: (§2) Human iPSC-derived intestinal organoids were differentiated into hindgut spheroids through endoderm, encapsulated in Matrigel, and matured for about 20 to 30 days. The mature intestinal organoids were extracted from Matrigel, re-encapsulated in a decellularized intestinal tissue-derived matrix
(§3) (IEM), and further cultured. […] Human iPSC-derived cardiac organoids were induced to mature into cardiomyocytes through mesenchyma and cardiac progenitor cells, and then 400,000 cells were mixed in 20 μL of a decellularized heart tissue-derived matrix (HEM) to prepare three-dimensional organoids. […] Each organoids cultured in a decellularized tissue-derived matrix was seeded into a multi-organ microfluidic device and then cultured in a normal culture medium suitable for each organ for 2 days. Then, the NASH group was treated with oleic acid (500 μM) and cultured for 3 days only in the chamber in which the liver organoid was cultured, and the groups treated with the respective drugs were treated with oleic acid (500 μM) and the respective drugs (50 μM) for 3 days in the chamber in which the liver organoid was cultured. A multi-organ device in which a normal liver organoid (Normal) not treated with the fatty acid was used as a control group.

[3] = test system: human iPSC-derived liver organoids; assay: Candidate drugs on hiPSC-derived liver organoids in multi-organ NASH model; type: cell-based; conditions: oleic acid 500 μM + drug 50 μM, 3 days
Description: Human iPSC-derived liver organoids were differentiated into hepatic endoderm cells through endoderm, and then a total of 500,000 cells including the hepatic endoderm cells, vascular endothelial cells (HUVEC) and mesenchymal stem cells (hMSC) at a ratio of 10:7:2 were mixed in 10 μL of culture medium. The mixture was coated onto 10 μL of a decellularized liver tissue-derived matrix (LEM) to induce the formation of three-dimensional organoids. […] Human iPSC-derived pancreas organoids were differentiated into beta cells through endoderm, gut endoderm, pancreatic endoderm, and pancreatic progenitor cells, and then a total of 500,000 cells including the beta cells, vascular endothelial cells (HUVEC) and mesenchymal stem cells (hMSC) at a ratio of 10:7:2 were mixed in 10 μL of culture medium. The mixture was coated onto 10 μL of a decellularized pancreas tissue-derived matrix (PEM) to induce the formation of three-dimensional organoids. […] Each organoids cultured in a decellularized tissue-derived matrix was seeded into a multi-organ microfluidic device and then cultured in a normal culture medium suitable for each organ for 2 days. Then, the NASH group was treated with oleic acid (500 μM) and cultured for 3 days only in the chamber in which the liver organoid was cultured, and the groups treated with the respective drugs were treated with oleic acid (500 μM) and the respective drugs (50 μM) for 3 days in the chamber in which the liver organoid was cultured. A multi-organ device in which a normal liver organoid (Normal) not treated with the fatty acid was used as a control group.

[4] = test system: human iPSC-derived cardiac organoids; conditions: immunofluorescence staining; oleic acid 500 μM + drug 50 μM, 3 days in liver chamber
Description: as §2, §3

CCCCCCCCCCCCCCCC(=O)N[C@@H](CCC(=O)NCCCC[C@H](NC(=O)[C@H](C)NC(=O)[C@H](C)NC(=O)[C@H](CCC(N)=O)NC(=O)CNC(=O)[C@H](CCC(=O)O)NC(=O)[C@H](CC(C)C)NC(=O)[C@H](Cc1ccc(O)cc1)NC(=O)[C@H](CO)NC(=O)[C@H](CO)NC(=O)[C@@H](NC(=O)[C@H](CC(=O)O)NC(=O)[C@H](CO)NC(=O)[C@@H](NC(=O)[C@H](Cc1ccccc1)NC(=O)[C@@H](NC(=O)CNC(=O)[C@H](CCC(=O)O)NC(=O)[C@H](C)NC(=O)[C@@H](N)Cc1cnc[nH]1)[C@@H](C)O)[C@@H](C)O)C(C)C)C(=O)N[C@@H](CCC(=O)O)C(=O)N[C@@H](Cc1ccccc1)C(=O)N[C@H](C(=O)N[C@@H](C)C(=O)N[C@@H](Cc1c[nH]c2ccccc12)C(=O)N[C@@H](CC(C)C)C(=O)N[C@H](C(=O)N[C@@H](CCCNC(=N)N)C(=O)NCC(=O)N[C@@H](CCCNC(=N)N)C(=O)NCC(=O)O)C(C)C)[C@@H](C)CC)C(=O)O [Lira, Liraglutide]
expression level of α-SMA, a fibrosis and drug toxicity-related marker (cardiac organoid; immunostaining): fibrosis was not improved
shape of the cardiac organoids (cardiac organoid; optical microscopy): some cells inside the organoids died, inducing severe cardiotoxicity
expression level of α-SMA, a fibrosis and drug toxicity-related marker (fibrosis) (cardiac organoid; quantitative PCR): fibrosis tended to worsen
gut barrier and budding of the intestinal organoid (intestinal organoid; optical microscopy): the gut barrier was maintained to some extent but organoid budding hardly occurred
epithelial lumen of the pancreas organoids (pancreas organoid; optical microscopy): increased in thickness, showing the pattern of early fibrosis
expression level of α-SMA, a fibrosis and drug toxicity-related marker (pancreas organoid; quantitative PCR): pancreatitis and fibrosis were reduced

CSc1ccc(C(=O)/C=C/c2cc(C)c(OC(C)(C)C(=O)O)c(C)c2)cc1 [Ela, Elafibranor]
expression of CTNT and F-actin, myocardial differentiation and actin-filament markers (cardiac organoid; immunostaining): recovered to some extent
expression level of ACTC1, a cardiac differentiation marker (cardiac organoid; quantitative PCR): recovered
expression level of OCLN, a tight junction marker of the gut barrier (intestinal organoid; quantitative PCR): not improved
expression levels of CHGA and MUC2, intestinal differentiation markers (intestinal organoid; quantitative PCR): not much recovered; also recorded: lower in the Ela-treated group than in No Treatment (NT) group
low-density cholesterol (LDL) levels in the liver organoids (liver organoid): an improvement in LDL levels compared to the No Treatment (NT) group; also recorded: a greater improvement than Lira
expression level of α-SMA, a fibrosis marker (fibrosis) (liver organoid; immunofluorescence staining): improved the most
COL1A1 expression (liver organoid; quantitative PCR): remarkably effective in reducing the increased expression of COL1A1
expression levels of HNF4A and ALB, hepatic differentiation markers (liver organoid; quantitative PCR): no significant effect on hepatic differentiation and functional recovery
expression of α-SMA and COL1A1, fibrosis and drug toxicity-related markers (liver organoid; quantitative PCR): improved

O=C1[C@H](CC[C@H](O)c2ccc(F)cc2)[C@@H](c2ccc(O)cc2)N1c1ccc(F)cc1 [Eze, Ezetimibe]
expression levels of insulin and NKX6.1, pancreatic differentiation markers [1]: less significantly recovered
expression level of ACTC1, a cardiac differentiation marker (cardiac organoid; quantitative PCR): limitations in improving cardiac differentiation/functionality
expression of NPC1L1 (intestinal organoid; immunostaining): the most significant decrease in expression
expression level of OCLN, a tight junction marker of the gut barrier (intestinal organoid; quantitative PCR): recovered to some extent
expression levels of CHGA and MUC2, intestinal differentiation markers (intestinal organoid; quantitative PCR): not much recovered
gene expression of FGF15 in the intestinal organoid (intestinal organoid; quantitative PCR): recovered to some extent
expression level of NPC1L1 [2]: decreased
expression level of the differentiation marker, MUC2 ([2]; vs No Treatment group): recovered to some extent
expression level of FGF19 ([3]; immunofluorescence staining): recovered only in the OCA-treated group
expression level of α-SMA, a fibrosis and drug toxicity-related marker ([3]; immunofluorescence staining): decreased to some extent
fatty acid accumulation (BODIPY staining) [3]: partially decreased
structure of the liver organoids ([3]; optical microscopy): some of the cells in the outer part died
expression levels of CTNT and F-actin, myocardial differentiation and actin-filament markers [4]: recovered to some extent
expression level of KRT19, a pancreatic exocrine cell marker (pancreas organoid; quantitative PCR): recovered to some extent
expression level of PDX1, an endocrine cell marker (pancreas organoid; quantitative PCR): not recovered
low-density cholesterol (LDL) levels in the liver organoids (liver organoid): significantly lower than those in the No Treatment (NT) group
expression levels of HNF4A and ALB, hepatic differentiation markers (liver organoid; quantitative PCR): recovered to some extent
expression of α-SMA and COL1A1, fibrosis and drug toxicity-related markers (liver organoid; quantitative PCR): improved
